Source: PubChem BioAssay AID1845216 (Molecular Pharmacology Branch, DTP, NCI, 2023)
Several values for one entry are separate records, joined by “and”; a condition that tells them apart may be missing. Equal values may be shown once.

Tested on: SW 982 tumor spheroid viability
Assay: Anticancer human tumor SW 982 cell line growth inhibition;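 note: spheroids exposed to compound for 7 days before readout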
Conditions: spheroids with HUVEC and MSC; for viability, T/C: stronger effect = lower value
Excerpt: Multicellular complex tumor spheroid response to DNA repair inhibitors in combination with DNA-damaging drugs
This study explores the anticancer activities of DNA-damaging drugs and inhibitors of DNA damage repair, both as single agents and in combinations. Complex tumor spheroids comprised of malignant cells, endothelial cells and mesenchymal stem cells served as an in vitro model for human solid tumors. This model system incorporates physiologically relevant features and patient-derived or established malignant cell lines with clinically relevant genetic alterations from many tumor types. Twenty-six patient-derived or established malignant cell lines were evaluated representing sarcoma, melanoma, small cell lung cancer (SCLC), non-small cell lung cancer (NSCLC), as well as bladder, ovarian and pancreatic cancers. The concentration ranges selected for each drug and investigational agent were based upon clinically achievable concentrations if the clinical Cmax of the agent was known.
Compounds. The drugs and compounds olaparib (NSC753686), talazoparib (NSC767125), berzosertib (NSC777718), elimusertib (NSC800525), nedisertib (NSC802822), VX-984 (NSC792969), AZD-1390 (NSC803789), temozolomide (NSC362856), topotecan (NSC609699), trabectedin (NSC813783), staurosporine (NSC755774), and gemcitabine (NSC613327) were obtained from the National Cancer Institute (NCI) Developmental Therapeutics Program Chemical Repository. The FDA-approved anticancer drug set is available from the Developmental Therapeutics Program at https://dtp.cancer.gov/organization/dscb/obtaining/available_plates.htm. […] The stock solutions were prepared in dimethyl sulfoxide (DMSO, Sigma-Aldrich, St. Louis, MO, cat. D2650) at 400-fold the tested concentration and stored at -70 degrees C. Prior to their use, the stock solutions were diluted in fresh medium and the final DMSO concentration in the assay was 0.25% (v/v). All drugs and investigational agents were tested over a range starting from a high concentration at or near the clinical Cmax and decreasing in half-log increments. If the clinical Cmax for an agent had not been determined, the highest concentration tested was 10 microM.
Cell Lines. The patient-derived cancer cell (PDC) lines: 156681-154-R-J1-PDC, 283228-195-R-J1-PDC, 287954-098-R-J1-PDC, 292921-168-R-J2-PDC, 349418-098-R-PDC, 425362-245-T-J1-PDC, 556581-035-R-J1-PDC, and BL0293-F563-PDC were received from the NCI Patient-Derived Models Repository (PDMR, https://pdmr.cancer.gov). The established cell lines HS-SY-2 (RRID:CVCL_8719), MPNST, and SYO-1 (RRID:CVCL_7146) were obtained from the Sloan Kettering Institute. The alveolar soft parts sarcoma cell line ASPS-1 (RRID:CVCL_S738) was established at the NCI and grown from internal seed stocks. The following established cell lines were purchased from the American Type Culture Collection (ATCC, Manassas, VA): G-401 (ATCC, cat. CRL-1441, RRID:CVCL_0270), SW982 (ATCC, cat. HTB-93, RRID:CVCL_1734), VA-ES-BJ (ATCC, cat. CRL-2138, RRID:CVCL_1785), NCI-H719 (ATCC, cat. CRL-5837, RRID:CVCL_1582), NCI-H196 (ATCC, cat. CRL-5823, RRID:CVCL_1509), NCI-H841 (ATCC, cat. CRL-5845, RRID:CVCL_1595), NCI-H1618 (ATCC, cat. CRL-5879, RRID:CVCL_1480), NCI-H1876 (ATCC, cat. CRL-5902, RRID:CVCL_1503), DMS 114 (ATCC, cat. CRL-2066; RRID:CVCL_1174), NCI-H211 (ATCC, cat. CRL-5824; RRID:CVCL_1529), and SW 1271 (ATCC, cat. CRL-2177, RRID:CVCL_1716). The small cell lung cancer cell line COR-L88 was purchased from Sigma-Aldrich (cat. 92031917-1VL, RRID:CVCL_1141). The non-small cell lung cancer cell lines NCI-H226 (RRID:CVCL_1544) and NCI-H322M (RRID:CVCL_1557) were established at the NCI and grown from internal seed stocks. Pooled donor human umbilical vein endothelial cells (HUVEC, Lonza, cat. CC-2519) and human mesenchymal stem cells (hMSC, Lonza, cat. PT-2501) were purchased from Lonza (Walkersville, MD).
Cell Culture. All cells were maintained in an incubator at 37 degrees C and 5% CO2 with 95% humidity. […]

[1] = compound alone, run of 12/02/2019
[2] = compound alone, run of 12/12/2019

SMILES	viability, T/C (compound 0.0316 µM)	viability, T/C (compound 0.1 µM)	viability, T/C (compound 0.316 µM)	viability, T/C (compound 1 µM)	viability, T/C (compound 3.16 µM)	viability, T/C (compound 10 µM)	IC50 (curve of compound)	viability, T/C (compound 0.00949 µM)	viability, T/C (compound 0.03 µM)	viability, T/C (compound 0.0949 µM)	viability, T/C (compound 0.3 µM)	viability, T/C (compound 0.949 µM)	viability, T/C (compound 3 µM)	also measured
CC(C)n1c(=O)n(C)c2cnc3cc(F)c(-c4ccc(OCCCN5CCCCC5)nc4)cc3c21	99% and 107% and 96.4%	87.8% and 104% and 101%	91.9% and 96% and 90.8%	87% and 91.9% and 71.7%	68.2% and 74.7% and 61.6%	34.8% and 48.2% and 35.8%	5950 nM and 9440 nM and 4930 nM							
CC1COCCN1c1cc(-c2ccnn2C)c2ccnc(-c3ccn[nH]3)c2n1 (stereo not given)	27.4% and 44.4% and 38.4%	20.4% and 25.4% and 17.1%	16.2% and 17.9% and 12.3%	13.2% and 15.2% and 10.5%	20% and 15.6% and 11%	22.1% and 22.6% and 14.1%	< 31.6 nM							
CC[C@@]1(O)C(=O)OCc2c1cc1n(c2=O)Cc2cc3c(CN(C)C)c(O)ccc3nc2-1								87.9% [middle of 10 runs]	81.2% [middle of 10 runs]	70.1% [middle of 10 runs]	51.5% [middle of 10 runs]			viability, T/C (compound 0.003 µM): 93.7% [middle of 10 runs]; IC50 [1]: > 300 nM and 283 nM; IC50 [2]: > 300 nM and 252 nM and 286 nM
CNCc1ccc(-c2cc(-c3nc(-c4ccc(S(=O)(=O)C(C)C)cc4)cnc3N)on2)cc1							263 nM and 341 nM and 205 nM	94.4% and 97.7% and 104%	94.6% and 94.9% and 100%	78.7% and 84% and 84.3%	43.7% and 49.3% and 31.1%	28% and 32.8% and 19.9%	13.5% and 17.2% and 2.19%	
COc1cc(C)[nH]c(=O)c1CN1CCc2c(Cl)cc(C(OC)C3COC3)c(Cl)c2C1=O (stereo not given)	72.5% and 105% and 108%	94.6% and 111% and 95.2%	100% and 109% and 89.6%	108% and 107% and 93.8%	113% and 110% and 96.4%	94.8% and 100% and 98.8%	> 10000 nM							
COc1cc2c(cc1O)CCNC21CSC2c3c(OC(C)=O)c(C)c4c(c3C(COC1=O)N1C(O)C3Cc5cc(C)c(OC)c(O)c5C(C21)N3C)OCO4 (stereo not given)														viability, T/C (compound 0.003 µM): 0.57% [middle of 10 runs]; IC50 [2]: 0.667 nM [middle of 10 runs]
COc1ccc([C@@H](O)c2cc(-c3ncnc4cc(N5CCOCC5)ccc34)c(F)cc2Cl)nn1	88.1% and 102% and 107%	87.4% and 93.8% and 101%	90.2% and 97.4% and 99.4%	89.2% (2×) and 98.7%	90.2% and 85.7% and 95.6%	57.1% and 67% and 70.2%	> 10000 nM							
Cc1cc(C)c(CNC(=O)c2cc(-c3ccc(CN4CCOCC4)cc3)cc3c2cnn3C2CCCC2)c(=O)[nH]1	111% and 101% and 106%	99.1% and 105% and 100%	97.4% and 99.9% and 105%	102% and 99.6% and 105%	95.3% and 98.8% and 82%	60.5% and 58.6% and 69%	> 10000 nM							
Cc1sc2c(c1C)C(c1ccc(Cl)cc1)=NC(CC(=O)Nc1ccc(O)cc1)c1nnc(C)n1-2 (stereo not given)							277 nM and 490 nM and 282 nM	102% (2×) and 124%	105% and 104% and 90.7%	79.4% and 83.4% and 72.8%	48.1% and 59.7% and 50.1%	35.9% and 35.4% and 29.1%	29.3% and 33.5% and 24.2%	
Cn1ncnc1[C@H]1c2n[nH]c(=O)c3cc(F)cc(c23)N[C@@H]1c1ccc(F)cc1							> 3000 nM	80.9% and 90% and 94.8%	93.7% and 94.9% and 97.7%	88.3% and 90.8% and 91.5%	77.9% and 87.9% and 79.2%	82.8% and 80.2% and 81.8%	75.7% and 82.9% and 62.9%	
Cn1nnc2c(C(N)=O)ncn2c1=O				96.1% [middle of 10 runs]	90.9% [middle of 10 runs]	79.1% [middle of 10 runs]								viability, T/C (compound 31.6 µM): 69.1% [middle of 10 runs]; viability, T/C (compound 100 µM): 57.1% [middle of 10 runs]; IC50 [1]: > 100000 nM
O=C(c1cc(Cc2n[nH]c(=O)c3ccccc23)ccc1F)N1CCN(C(=O)C2CC2)CC1							24700 nM and 15800 nM and 9440 nM			99.7% and 104% and 98.4%	102% and 97.7% and 100%	96.9% and 88.7% and 98.6%	79.8% and 87.7% and 85.5%	viability, T/C (compound 9.49 µM): 63.3% and 54.4% and 49.8%; viability, T/C (compound 30 µM): 47.1% and 43.4% and 46.1%
[2H]c1nc(C)nc([2H])c1-c1cc(NC[C@@H](C)c2cccc3c(C(=O)NC)ccnc23)ncn1	80.2% and 102% and 103%	91.6% and 101% and 97.5%	94% and 103% and 107%	96.9% and 96.7% and 114%	103% and 101% and 111%	103% and 94.8% and 108%	> 10000 nM							
